This is an account of results in patent US6960586B2, “Imidazole derivatives, process for their preparation and their use” (Takeda Pharmaceutical Company Limited, priority 2000, dated 2005).

For one experiment, the target named is T1, Rat Steroid C17,20-lyase (Rattus norvegicus, UniProt P11715).
T1 construct: Testes were excised from 10- to 13-week-old male SD rats, homogenized, and centrifuged to give microsomes; from tissue; host or cells: testis microsomes of male SD rats
T1 sequence (P11715 1-507): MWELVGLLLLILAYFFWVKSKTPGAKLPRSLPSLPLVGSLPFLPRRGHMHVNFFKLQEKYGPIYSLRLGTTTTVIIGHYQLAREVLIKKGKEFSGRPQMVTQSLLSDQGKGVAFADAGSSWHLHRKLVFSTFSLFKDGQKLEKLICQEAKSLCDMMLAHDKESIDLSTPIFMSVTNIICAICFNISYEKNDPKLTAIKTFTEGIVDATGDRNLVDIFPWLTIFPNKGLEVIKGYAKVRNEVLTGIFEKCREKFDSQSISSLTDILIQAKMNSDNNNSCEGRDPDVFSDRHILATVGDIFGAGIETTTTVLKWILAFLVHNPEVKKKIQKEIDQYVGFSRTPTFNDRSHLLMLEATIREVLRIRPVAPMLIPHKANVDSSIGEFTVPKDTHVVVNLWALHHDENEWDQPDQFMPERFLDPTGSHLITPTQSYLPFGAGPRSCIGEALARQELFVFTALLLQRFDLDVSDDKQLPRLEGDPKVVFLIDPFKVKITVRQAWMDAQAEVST
The experiment is described as follows: Assay of inhibitory activity on rat steroid C17,20-lyase (testis microsomes). To be noted: 10 nM [1,2-3H]-17α-hydroxyprogesterone, 37° C., 7 minutes. The experiment is classed as biochemical. Here is the method:
Assay of Inhibitory Activity on Rat Steroid C17,20-lyase
The activity was determined according to The Prostate, vol. 26, 140-150 (1995).
Testes were excised from 10- to 13-week-old male SD rats, homogenized, and centrifuged to give microsomes. [1,2-^3H]-17α-hydroxyprogesterone having a final concentration of 10 nM, NADPH solution and test compounds were dissolved in 10 μl of 100 mM phosphate buffer (pH 7.4) and microsome protein (7 μg/10 μl) was added. The reaction mixture was incubated at 37° C. for 7 minutes. Ethyl acetate (40 μl) was added and the mixture was centrifuged. The substrate and the products (androstenedione and testosterone) in the supernatant were separated by silica gel thin layer chromatography (TLC). The spots were detected and quantitatively determined by BAS 2000 Bioimage analyzer. The concentration of the test compounds necessary to reduce the amount of the products by 50% (IC50) relative to the amount of the products without test compound (control) as 100% was calculated, and shown in Table 1.

The next experiment has as its target T2, human CYP3A4 (Homo sapiens, UniProt P08684).
T2 construct: purchased GENTEST
The experiment can be described thus: Assay of human CYP3A4-inhibitory activity. The experiment is classed as in vitro ADME. To be noted: testosterone 100 μM as substrate, 6β-hydroxytestosterone formation, 37° C., 30 min. Here is the method:
Assay of Human CYP3A4-Inhibitory Activity
Performed as in the following according to Journal of Biological Chemistry, vol. 256, 11937 (1983).
A phosphate buffer solution (50 mM, pH 7.4) containing testosterone (final concentration 100 μM, hereinafter the same), human CYP3A4 (10 pmol/ml, manufactured by GENTEST), NADPH producing system (0.5 mM NADP, 5 mM glucose-6-phosphate, 5 mM magnesium chloride, 1.5 units/ml glucose-6-phosphate dehydrogenase) and the test compound was incubated at 37° C. for 30 min. Acetonitrile was added to the reaction mixture and the mixture was stirred and centrifuged. The 6β-hydroxytestosterone in the obtained supernatant was analyzed by high performance liquid chromatography. The concentration (IC50) of the compound necessary for 50% inhibition was calculated taking the production amount without addition of the test compound as 100%.

A further experiment deals with testosterone synthesis. The experiment can be described thus: Assay of inhibitory activity on testosterone synthesis in rats. In kind it is in vivo, rat. The note with it: 25 mg/kg orally, male SD rats, serum testosterone two hours after administration, relative to control group. The method, then:
Assay of Inhibitory Activity on Testosterone Synthesis in Rats
Test compounds (25 mg/kg) were orally administered to 9-week-old male SD (Sprague Dawley) rats. Two hours after administration of the compounds, blood was drawn and testosterone concentration in the obtained serum was measured by radioimmunoassay. The percentage (T/C, %) of the testosterone concentration of test compounds administration group to that of the control group was calculated, and taken as the inhibitory activity on testosterone synthesis.

A value given as a limit tells only on which side of the number the result lay.

T2 sequence (P08684 whole entry): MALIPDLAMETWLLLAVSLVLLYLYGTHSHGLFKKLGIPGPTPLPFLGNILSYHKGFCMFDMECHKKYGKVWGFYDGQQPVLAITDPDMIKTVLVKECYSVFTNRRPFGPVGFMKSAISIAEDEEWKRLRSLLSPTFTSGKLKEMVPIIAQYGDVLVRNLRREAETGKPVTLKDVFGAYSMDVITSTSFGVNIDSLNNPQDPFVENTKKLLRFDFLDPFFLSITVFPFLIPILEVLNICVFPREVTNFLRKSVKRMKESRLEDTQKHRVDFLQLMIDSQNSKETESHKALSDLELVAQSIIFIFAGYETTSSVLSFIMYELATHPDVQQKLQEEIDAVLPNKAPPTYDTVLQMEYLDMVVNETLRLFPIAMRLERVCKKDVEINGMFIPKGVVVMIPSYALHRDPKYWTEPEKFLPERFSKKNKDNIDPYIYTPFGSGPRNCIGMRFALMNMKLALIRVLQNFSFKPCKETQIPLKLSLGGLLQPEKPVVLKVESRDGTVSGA

`CCN1Cc2c(ccc3cc(C(O)(c4c[nH]cn4)C(C)C)ccc23)C1=O` (stereo not shown) [Example 3, 2-ethyl-7-[1-hydroxy-1-(1H-imidazol-4-yl)-2-methylpropyl]-1,2-dihydro-3-benzo[e]isoindol-3-one]: the IC50 at Rat Steroid C17,20-lyase was 23 nM; at human CYP3A4 it was > 10000 nM. Turning to `CC(C)C(O)(c1ccc2c3c(ccc2c1)C(=O)N(C)C3)c1c[nH]cn1` (stereo not shown) [Example 2, 7-[1-hydroxy-1-(1H-imidazol-4-yl)-2-methylpropyl]-2-methyl-1,2-dihydro-3H-benzo[e]isoindol-3-one], the IC50 was 15 nM on Rat Steroid C17,20-lyase and > 10000 nM against human CYP3A4. With `CC(C)C(O)(c1ccc2c3c(ccc2c1)C(=O)NC3)c1c[nH]cn1` (stereo not shown) [Example 1, 7-[1-hydroxy-1-(1H-imidazol-4-yl)-2-methylpropyl]-1,2-dihydro-3H-benzo[e]isoindol-3-one], the “Testosterone synthesis inhibitory activity (T/C, %)” value in the experiment with testosterone synthesis was 6.0%. The IC50 against Rat Steroid C17,20-lyase was < 10 nM. `CC(C)CC(O)(c1ccc2c3c(ccc2c1)C(=O)N(C)C3)c1c[nH]cn1` (stereo not shown) [Example 14, 7-[1-hydroxy-1-(1H-imidazol-4-yl)-3-methylbutyl]-2-methyl-1,2-dihydro-3H-benzo[e]isoindol-3-one] returned an IC50 against Rat Steroid C17,20-lyase of 22 nM. That is a double-digit nanomolar value. As to `CC(C)C(O)(c1ccc2cc3c(cc2c1)CNC3=O)c1c[nH]cn1` (stereo not shown) [Example 10, 6-[1-hydroxy-1-(1H-imidazol-4-yl)-2-methylpropyl]-2,3-dihydro-1H-benzo[f]isoindol-1-one], the values for the IC50 on Rat Steroid C17,20-lyase and on human CYP3A4 were 42 nM and > 10000 nM, respectively. As for `CC(C)C(O)(c1ccc2c3c(ccc2c1)C(=O)N(C)C3)c1c[nH]cn1` (single isomer, unassigned; (-)) [Example 16, (−)-7-[1-hydroxy-1-(1H-imidazol-4-yl)-2-methylpropyl]-2-methyl-1,2-dihydro-3H-benzo[e]isoindol-3-one], the “Testosterone synthesis inhibitory activity (T/C, %)” value with testosterone synthesis was 4.3%.

As usually defined, the IC50 is the point on the concentration scale where inhibition reaches its midpoint. A lower IC50 goes with inhibition by little substance.
